According to patent publication US20220268782A1, “METHODS FOR PREDICTING AND TREATING CARDIAC DYSFUNCTION” (INSERM (INSTITUT NATIONAL DE LA SANTÉ EAT DE LA RECHERCHE …, priority 2019, published 2022):

Columns and labels:
Type in all cases: cell-based
C2C12 myoblasts [1] = assay: Oxidative stress in C2C12 cells (CellROX cytosolic superoxide, MitoSOX mitochondrial superoxide, GSH)
Procedure: (§1) C2C12 (ATCC® CRL-1772™) myoblasts maintained in DMEM supplemented with L-glutamine (2 mM), penicillin/streptomycin (1%) and 5% fetal bovine serum (FBS) were seeded either at a density of 5×10^4 cells (<50%) per well in 24-well plates or 10^4 cells in 4-well chamber slides. Cells were with L-phenylalanine (1-10 mM)+BH4 (10 μM) and incubation with increasing concentrations of N-acetylcysteine (0.5, 2.5, 5 mM) vs. vehicle overnight as indicated. Cells were analysed for oxidative stress with MitoSOX™ (mitochondrial superoxide; 5 μM, ThermoFisher Scientific), CellROX™ (cytosolic superoxide; 5 μM, ThermoFisher Scientific), gene or protein expression, or various metabolites (see below).
(§2) Levels of reduced glutathione (GSH; ThermoFisher), phenylalanine (BioVision) and tyrosine (BioVision) were determined from cells or plasma, with respective agents/kits following the manufacturer's recommendations. Specifically, GSH levels were estimated with the aid of ThiolTracker™ Violet fluorescent probe (ThermoFisher). Plasma and liver phenylalanine levels were determined using an enzyme-coupled, fluorometric method (BioVision). Briefly, samples were deproteinized via trichloroacetate precipitation, neutralised, tyrosinase-treated (to remove tyrosine that may interfere) and diluted to fit in the standard curve. Fluorescence reading took place at 587 nm after excitation at 535 nm. Levels of tyrosine in cells or conditioned media were determined after deproteinization using 10 kDa cut-off columns with an enzyme-coupled, colorimetric method with reading at 491 nm (BioVision).

C2C12 myoblasts [2] = assay: PA-induced senescence in C2C12 myoblasts (immunoblot of senescence markers, EdU incorporation); details: C2C12 cells
Procedure: (§3) Cells were washed briefly with ice-cold 1×PBS, scraped in 400 μL T-PER lysis buffer (ThermoFisher) supplemented with 0.1 mM phenylmethylsulphonyl fluoride (PMSF) and protease/phosphatase inhibitor cocktail tablet (ThermoFisher). Pulverised tissue samples (20-30 mg) were lysed in the same buffer accelerated by sonication and passing through a 21 G needle. To pellet any debris, lysates were centrifuged at 10,000 g for 10 minutes at 4° C., with the supernatant transferred to fresh tubes. Protein concentrations were determined with Bradford assay (Biorad) and lysates were diluted to equal concentration with lysis buffer. Protein lysates were then mixed with Laemmli buffer, vortexed and heated to 95° C. for 5 min. Equal amounts of protein lysates in parallel with protein molecular weight marker (ThermoFisher) were loaded onto pre-cast polyacrylamide gels (Nupage 10 or 12% Bis Tris gel, Novex, Invitrogen) and separated by electrophoresis at 200V for 1 hour. Proteins were transferred onto polyvinylidene difluoride (PVDF) membrane (Invitrogen) using an electrophoretic transfer cell (Mini Trans-Blot, Bio-Rad) in ice-cold transfer buffer (48 mM Tris base, […], 0.1% SDS, 20% methanol (v/v)) at 300 mA for 2 hours. Membranes were blocked in 1× skimmed milk (ThermoFisher) for 1 hour at room temperature, followed by overnight incubation with primary antibody diluted in blocking buffer at 4° C. Next day membranes were washed, followed by 60 minutes incubation in the corresponding horseradish peroxidase (HRP)-conjugated secondary antibody diluted 1:2000-10000 in blocking buffer (all Abcam). Blots were developed using enhanced chemiluminescence (ECL) reagents (normal, Prime & Select) and digital images were acquired using an imaging system (Azure Biosystems). Membranes were usually stripped of antibodies and reprobed with an antibody targeting a protein serving as loading control (α-actinin for hearts & β-actin for all others). For this procedure, membranes were placed in Guanidine-HCl-based stripping solution (6M Guanidine-HCl, 0.2% Nonidet P-40, 0.1M β-mercaptoethanol, 20 mM Tris-HCl, pH 7.5 and 100 mM 2-mercaptoethanol) and incubated for 10 minutes at room temperature with gentle agitation, followed by extensive washing and re-blocking.^5
as §1

AML-12 hepatocytes = assay: AML-12 hepatocytes: p21, Pah immunoblot and tyrosine production
Procedure: as §3
AML12 cells (ATCC® CRL-2254™) were maintained in DMEM/F-12 (1:1) culture media supplemented with 10% FBS, 10 μg/ml insulin, 5.5 μg/ml transferrin, 5 ng/ml selenium, 40 ng/ml dexamethasone and 1% penicillin/streptomycin. Cells were sub-cultivated from subconfluent flasks with a ratio from 1:4 to 1:8. For WB analysis, cells were plated on 6-well plates and harvested at 80-90% of confluence. AML12 cells were transfected with indicated siRNA (Table 2) at 80% confluence using Lipofectamine RNAiMAX Transfection Reagent (ThermoFischer Scientific 13778030) following the manufacturer's instructions. Transfection efficiency was constantly checked using BLOCK-IT Alexa Fluor Red Fluorescent Control (ThermoFischer Scientific 14750100).
as §2

Row | SMILES | cytosolic superoxide levels under PA treatment (C2C12 myoblasts [1]; PA plus co-treatment (BH4 10 μM or NAC), FIG. 1f) | reduced glutathione (GSH) levels under PA treatment (C2C12 myoblasts [1]; PA plus co-treatment, data not shown) | PA-dependent senescence (p21 protein, EdU incorporation) (C2C12 myoblasts [2]; PA 5 mM + BH4 10 μM, FIG. 1c-d) | Pah levels under Nutlin3a-induced senescence (AML-12 hepatocytes; Nutlin3a plus co-treatment, FIG. 4o, 4r) | tyrosine production / levels under Nutlin3a-induced senescence (AML-12 hepatocytes; Nutlin3a plus co-treatment, FIG. 4p, 4q) | cytosolic superoxide levels (CellROX probe) (C2C12 myoblasts [1]; as a function of PA concentration, FIG. 1e) | other markers of senescence (Cdkn2a=p16 and phospho-p53=p-p53) (C2C12 myoblasts [2]; PA 5 mM vs. vehicle, FIG. 1a) | cyclin-dependent kinase 1a (Cdkn1a=p21) protein (C2C12 myoblasts [2]; PA 5 mM vs. vehicle, FIG. 1a-b) | EdU incorporation (C2C12 myoblasts [2]; PA treatment, FIG. 1d) | p21 protein (AML-12 hepatocytes; increasing concentrations of PA (0-10 mM), FIG. 4n)
1 | CC(O)C(O)C1CNc2nc(N)[nH]c(=O)c2N1 (stereo not shown) [BH4, 2-amino-6-(1,2-dihydroxypropyl)-5,6,7,8-tetrahydro-3H-pteridin-4-one] | normalized | restored normal | antagonised | derepressed | derepressed |  |  |  |  | 
2 | N[C@@H](Cc1ccccc1)C(=O)O [PA, (S)-2-Amino-3-phenylpropanoic acid] |  |  |  |  |  | incrementally increased | remained unaltered | selectively induced | suppressed | dose-dependent induction
